Source: patent publication US20150119601A1, “MONOFUNCTIONAL MCR + 3-HP DEHYDROGENASE” (OPX Biotechnologies, Inc., priority 2013, published 2015)
Like-named read-outs stand apart in the source and are kept apart here.

Tests used:
[1] = molecular target: E. coli ACCase (Escherichia coli, UniProt P0A9Q5+P0ABD5+P0ABD8+P24182); conditions: for decrease of ACCase enzyme activity: relative to control (FIG. 4); for inhibition of E. coli ACCase by the salts: FIG. 4
Experimental: Levels of greater than 0.66M (60 g/L) are expected to be present for commercially viable commercial production of 3-HP.
Each gene was amplified by PCRs with Pfu Ultra II HS using the manufacturer's instructions, and the PCR products were purified using the Zymo PCR Cleanup kit. Concentrations of products were measured using the Nanodrop spectophotometer. The Gibson Assembly kit (NEB) was used to construct plasmids expressing the ACCase subunit genes as directed by the manufacturer. The effect of NH4-3-HP and NH4Cl on H. elongata ACCase was tested and compared to the E. coli ACCase.

[2] = system: H. elongata ACCase; assay: Salt effect on H. elongata ACCase compared to E. coli ACCase; type: biochemical, Halomonas elongata; conditions: FIG. 4
Experimental: Concentrations of products were measured using the Nanodrop spectophotometer.

[3] = system: E. coli strains; assay: Growth inhibition of E. coli strains by 3-HP; type: cell-based; conditions: E. coli strains grown in the presence of 3-HP
[4] = salts of 3-HP levels near 0.66M

Chain of E. coli ACCase (P0ABD5 whole entry): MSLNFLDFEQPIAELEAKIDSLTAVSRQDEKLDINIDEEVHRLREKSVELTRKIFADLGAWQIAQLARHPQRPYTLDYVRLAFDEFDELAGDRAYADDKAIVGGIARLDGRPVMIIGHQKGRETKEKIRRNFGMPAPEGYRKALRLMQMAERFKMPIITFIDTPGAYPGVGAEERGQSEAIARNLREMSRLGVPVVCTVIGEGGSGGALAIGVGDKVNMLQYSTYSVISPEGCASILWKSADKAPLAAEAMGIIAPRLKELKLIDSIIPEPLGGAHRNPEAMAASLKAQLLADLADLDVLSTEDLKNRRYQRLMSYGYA
Chain of E. coli ACCase (P0A9Q5 whole entry): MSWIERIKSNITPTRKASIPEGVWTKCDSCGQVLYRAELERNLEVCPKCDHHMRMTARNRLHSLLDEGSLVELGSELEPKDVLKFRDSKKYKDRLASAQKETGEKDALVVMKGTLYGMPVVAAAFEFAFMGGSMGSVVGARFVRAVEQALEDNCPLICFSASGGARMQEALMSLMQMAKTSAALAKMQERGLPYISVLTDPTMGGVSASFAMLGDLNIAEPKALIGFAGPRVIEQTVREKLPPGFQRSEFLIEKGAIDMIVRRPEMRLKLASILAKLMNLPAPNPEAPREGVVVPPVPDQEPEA

| SMILES | decrease of ACCase enzyme activity [1, 4] | inhibition of E. coli ACCase by the salts [1] | effect of the salts on ACCase from the halophile [2] | decrease of ACCase enzyme activity ([1]; salt levels near 0.44M) | 3-HP level at which growth inhibition is demonstrated [3] [g/L] |
| --- | --- | --- | --- | --- | --- |
| O=C([O-])CCO.[Na+] [Na-3-HP] | approximately 80% | – | – | – | – |
| N.O=C(O)CCO [NH4-3-HP] | approximately 80% | significantly inhibited | less affected | – | – |
| Cl.N [NH4Cl] | – | significantly inhibited | less affected | approximately 80% | – |
| O=C(O)CCO [3-HP, 3-hydroxypropionic acid] | – | – | – | – | ≥ 20 |
| [Cl-].[Na+] [NaCl] | – | – | – | approximately 80% | – |
